Experimental data as given in patent US11312727B1, “Macrocyclic flu endonuclease inhibitors” (Janssen BioPharma, Inc., priority 2018, dated 2022).

Assays:
[1] = test system: Influenza strain A549 A/WSN/33 (H1N1); assay: microbe, parasite or virus in culture; format: cell-based; details: Influenza A virus, A549, 20 h, A549 cells, influenza A/WSN/33 (H1N1), 20 hours incubation; read-out: A549_A(H1N1) EC50
[2] = in vitro; details: human, CC50, uninfected A549 cells, CellTiter-Glo

SMILES | EC50 [1] [nM] | CC50 [2] [nM]
O=C1c2c(O)c(=O)ccn2N2CN1CC/C=C/COc1c(ccc(F)c1F)[C@@H]2c1ccccc1 (single isomer, unassigned) [Compound 112A, (2*S,E)-33,34-difluoro-15-hydroxy-2-phenyl-12,13,14,16-tetrahydro-11H-4-oxa-1(1,3)-pyrido[2,1-f][1,2,4]triazina-3(1,2)-benzenacyclononaphan-6-ene-14,16-dione] | 3.8 | > 200
O=C1c2c(O)c(=O)ccn2N2CN1C1(/C=C/COc3c(ccc(Cl)c3Cl)[C@H]2c2ccccc2)CC1 (single isomer, unassigned) [Compound 113A, (18′*R,*E)-3′,4′-dichloro-12′-hydroxy-18′-phenyl-6′H,18′H-spiro[cyclopropane-1,9′-[10,17]methanobenzo[b]pyrido[1,2-f][1]oxa[5,6,9]triazacyclotridecine]-11′,13′-dione] | > 100 | > 200
O=C1c2c(O)c(=O)ccn2N2CN1C1(/C=C/COc3c(ccc(Cl)c3Cl)[C@@H]2c2ccccc2)CC1 (single isomer, unassigned) [Compound 113B, (18′*S,*E)-3′,4′-dichloro-12′-hydroxy-18′-phenyl-6′H,18′H-spiro[cyclopropane-1,9′-[10,17]methanobenzo[b]pyrido[1,2-f][1]oxa[5,6,9]triazacyclotridecine]-11′,13′-dione] | 2 | > 200
O=C1c2c(O)c(=O)ccn2N2CN1CCCCOc1c(F)cccc1[C@H]2c1ccccc1 (single isomer, unassigned) [Compound 114A, (18*R)-4-fluoro-12-hydroxy-18-phenyl-6,7,8,9-tetrahydro-18H-10,17-methanobenzo[b]pyrido[1,2-f][1]oxa[5,6,9]triazacyclotridecine-11,13-dione] | 7 | > 200
O=C1c2c(O)c(=O)ccn2N2CN1CCCCOc1c(F)cccc1[C@@H]2c1ccccc1 (single isomer, unassigned) [Compound 114B, (18*S)-4-fluoro-12-hydroxy-18-phenyl-6,7,8,9-tetrahydro-18H-10,17-methanobenzo[b]pyrido[1,2-f][1]oxa[5,6,9]triazacyclotridecine-11,13-dione] | > 100 | > 200
O=C1c2c(O)c(=O)ccn2N2CN1CCCCOc1c(ccc(F)c1F)[C@H]2c1ccccc1 (single isomer, unassigned) [Compound 115A, (18*R)-3,4-difluoro-12-hydroxy-18-phenyl-6,7,8,9-tetrahydro-18H-10,17-methanobenzo[b]pyrido[1,2-f][1]oxa[5,6,9]triazacyclotridecine-11,13-dione] | > 100 | > 200
O=C1c2c(O)c(=O)ccn2N2CN1CCCCOc1c(ccc(F)c1F)[C@@H]2c1ccccc1 (single isomer, unassigned) [Compound 115B, (18*S)-3,4-difluoro-12-hydroxy-18-phenyl-6,7,8,9-tetrahydro-18H-10,17-methanobenzo[b]pyrido[1,2-f][1]oxa[5,6,9]triazacyclotridecine-11,13-dione] | 4.4 | > 200
O=C1c2c(O)c(=O)ccn2N2CN1CC/C=C\COc1c(ccc(F)c1F)[C@@H]2c1ccccc1 (single isomer, unassigned) [Compound 116A, (2*S,Z)-33,34-difluoro-15-hydroxy-2-phenyl-12,13,14,16-tetrahydro-11H-4-oxa-1(1,3)-pyrido[2,1-f][1,2,4]triazina-3(1,2)-benzenacyclononaphan-6-ene-14,16-dione] | 14 | > 200
COc1ccccc1[C@@H]1c2cccc(F)c2OC/C=C\CN2CN1n1ccc(=O)c(O)c1C2=O (single isomer, unassigned) [Compound 117A, (18*R,*Z)-4-fluoro-12-hydroxy-18-(2-methoxyphenyl)-6,9-dihydro-18H-10,17-methanobenzo[b]pyrido[1,2-f][1]oxa[5,6,9]triazacyclotridecine-11,13-dione] | 29 | > 200
